According to the NIST ThermoML archive (doi:10.1021/je0503857):
Numbers after ± are expanded uncertainties.

How the values were obtained:
[1] = for vapor or sublimation pressure: Liquid, Gas chromatography; for Normal melting temperature: Crystal, DTA
[2] = Molar enthalpy of transition or fusion; conditions: DSC
[3] = molar heat capacity at constant pressure; conditions: 298.15 K; 101.33 kPa; Crystal; Small sample (50 mg) DSC

Row | vapor or sublimation pressure ([1]; 298.15 K) [kPa] | vapor or sublimation pressure ([1]; 300 K) [kPa] | vapor or sublimation pressure ([1]; 330 K) [kPa] | vapor or sublimation pressure ([1]; 360 K) [kPa] | vapor or sublimation pressure ([1]; 390 K) [kPa] | vapor or sublimation pressure ([1]; 420 K) [kPa] | vapor or sublimation pressure ([1]; 450 K) [kPa] | vapor or sublimation pressure ([1]; 480 K) [kPa] | vapor or sublimation pressure ([1]; 510 K) [kPa] | Molar enthalpy of transition or fusion ([2]; Crystal) [kJ/mol] | molar heat capacity at constant pressure [3] [J/K/mol] | Normal melting temperature [1] [°C] | Molar enthalpy of transition or fusion ([2]; Crystal 2) [kJ/mol] | SMILES
1 | 7.557e-11 | 1.065e-10 | 1.71e-08 ± 1.2e-08 | 1.132e-06 ± 1.2e-07 | 3.397e-05 ± 3.4e-06 | 0.0005237 ± 5.3e-05 | 0.004678 ± 0.00047 | 0.02685 ± 0.0027 | 0.1078 ± 0.011 |  |  |  |  | CC(C)CCC[C@@H](C)[C@H]1CC[C@H]2[C@@H]3CC=C4C[C@@H](O)CC[C@]4(C)[C@H]3CC[C@]12C [.DELTA.5-cholesten-3β-ol]
2 | 1.959e-06 ± 2.1e-07 | 2.552e-06 ± 2.7e-07 | 0.0001153 ± 1.2e-05 | 0.002406 ± 0.00024 | 0.0273 ± 0.0027 | 0.192 ± 0.019 | 0.9282 ± 0.093 | 3.337 ± 0.33 | 9.481 ± 0.95 | 28.8 ± 0.9 | 472.6 ± 9.5 | 41.2 ± 0.5 |  | CCCCCCCCCCC(O)CCCCCC (configuration not stated) [7-heptadecanol]
3 | 1.895e-06 ± 2e-07 | 2.471e-06 ± 2.6e-07 | 0.0001127 ± 1.1e-05 | 0.002368 ± 0.00024 | 0.02704 ± 0.0027 | 0.1913 ± 0.019 | 0.929 ± 0.093 | 3.354 ± 0.34 | 9.568 ± 0.96 | 43.2 ± 1.2 | 472.6 ± 9.5 | 57.1 ± 0.5 |  | CCCCCCCCC(O)CCCCCCCC [9-heptadecanol]
4 | 6.86e-07 ± 7.9e-08 | 9.02e-07 ± 1e-07 | 4.724e-05 ± 4.8e-06 | 0.001125 ± 0.00011 | 0.01426 ± 0.0014 | 0.1098 ± 0.011 | 0.571 ± 0.057 | 2.174 ± 0.22 | 6.457 ± 0.65 |  | 490.5 ± 9.8 | 52.2 ± 0.5 | 63.4 ± 1.7 | CCCCCCCCCCCCCCCCCO [1-heptadecanol]
5 |  |  |  |  |  |  |  |  |  |  | 517.4 ± 10 | 52.5 ± 5 | 69.6 ± 1.8 | CCCCCCCCCCCCCCCCCCO [1-octadecanol]
6 |  |  |  |  |  |  |  |  |  | 35.7 ± 1 | 472.6 ± 9.5 | 38.4 ± 0.5 |  | CCCCCCCCCCCCCC(O)CCC (configuration not stated) [4-heptadecanol]
7 |  |  | 5.89e-07 ± 7.1e-08 | 2.687e-05 ± 2.7e-06 | 0.000588 ± 5.9e-05 | 0.007063 ± 0.00071 | 0.0523 ± 0.0052 | 0.2627 ± 0.026 | 0.9664 ± 0.097 | 82.8 ± 2.2 | 625 ± 13 | 71.4 ± 0.5 |  | CCCCCCCCCCCCCCCCCCCCCCO [1-docosanol]
8 | 3.215e-08 ± 1.3e-08 | 4.345e-08 ± 1.4e-08 | 3.509e-06 ± 3.6e-07 | 0.0001228 ± 1.2e-05 | 0.002151 ± 0.00021 | 0.02156 ± 0.0022 | 0.1382 ± 0.014 | 0.6201 ± 0.062 | 2.091 ± 0.21 |  | 571.2 ± 11 | 64 ± 1 | 78.4 ± 2.1 | CCCCCCCCCCCCCCCCCCCCO [1-eicosanol]
9 | 1.813e-06 ± 1.9e-07 | 2.363e-06 ± 2.5e-07 | 0.0001082 ± 1.1e-05 | 0.002283 ± 0.00023 | 0.02614 ± 0.0026 | 0.1853 ± 0.019 | 0.901 ± 0.09 | 3.255 ± 0.33 | 9.287 ± 0.93 | 49 ± 1.3 | 472.6 ± 9.5 | 42.7 ± 0.5 |  | CCCCCCCCCCCC(O)CCCCC (configuration not stated) [6-heptadecanol]
10 | 6.401e-11 | 9.145e-11 | 1.78e-08 ± 1.2e-08 | 1.364e-06 ± 1.5e-07 | 4.614e-05 ± 4.6e-06 | 0.0007898 ± 7.9e-05 | 0.007756 ± 0.00078 | 0.0486 ± 0.0049 | 0.212 ± 0.021 | 104 ± 2.7 | 732.6 ± 15 | 80.0 ± 0.5 |  | CCCCCCCCCCCCCCCCCCCCCCCCCCO [1-hexacosanol]
